# Source: ChEMBL document CHEMBL5143636, “Design, synthesis and structure-activity relationship studies of pyrido[2,3-d]pyrimidin-7-ones as potent Janus Kinase 3 (JAK3) covalent inhibitors” (Bioorg Med Chem Lett, 2022)
# The source made the active and inactive calls. The calls are words filed in the database; no cut-off is given here.
# How the values were obtained:
# [1] = target: T1, Tyrosine-protein kinase JAK3 (Homo sapiens, UniProt P52333)
# T1 sequence (P52333 whole entry): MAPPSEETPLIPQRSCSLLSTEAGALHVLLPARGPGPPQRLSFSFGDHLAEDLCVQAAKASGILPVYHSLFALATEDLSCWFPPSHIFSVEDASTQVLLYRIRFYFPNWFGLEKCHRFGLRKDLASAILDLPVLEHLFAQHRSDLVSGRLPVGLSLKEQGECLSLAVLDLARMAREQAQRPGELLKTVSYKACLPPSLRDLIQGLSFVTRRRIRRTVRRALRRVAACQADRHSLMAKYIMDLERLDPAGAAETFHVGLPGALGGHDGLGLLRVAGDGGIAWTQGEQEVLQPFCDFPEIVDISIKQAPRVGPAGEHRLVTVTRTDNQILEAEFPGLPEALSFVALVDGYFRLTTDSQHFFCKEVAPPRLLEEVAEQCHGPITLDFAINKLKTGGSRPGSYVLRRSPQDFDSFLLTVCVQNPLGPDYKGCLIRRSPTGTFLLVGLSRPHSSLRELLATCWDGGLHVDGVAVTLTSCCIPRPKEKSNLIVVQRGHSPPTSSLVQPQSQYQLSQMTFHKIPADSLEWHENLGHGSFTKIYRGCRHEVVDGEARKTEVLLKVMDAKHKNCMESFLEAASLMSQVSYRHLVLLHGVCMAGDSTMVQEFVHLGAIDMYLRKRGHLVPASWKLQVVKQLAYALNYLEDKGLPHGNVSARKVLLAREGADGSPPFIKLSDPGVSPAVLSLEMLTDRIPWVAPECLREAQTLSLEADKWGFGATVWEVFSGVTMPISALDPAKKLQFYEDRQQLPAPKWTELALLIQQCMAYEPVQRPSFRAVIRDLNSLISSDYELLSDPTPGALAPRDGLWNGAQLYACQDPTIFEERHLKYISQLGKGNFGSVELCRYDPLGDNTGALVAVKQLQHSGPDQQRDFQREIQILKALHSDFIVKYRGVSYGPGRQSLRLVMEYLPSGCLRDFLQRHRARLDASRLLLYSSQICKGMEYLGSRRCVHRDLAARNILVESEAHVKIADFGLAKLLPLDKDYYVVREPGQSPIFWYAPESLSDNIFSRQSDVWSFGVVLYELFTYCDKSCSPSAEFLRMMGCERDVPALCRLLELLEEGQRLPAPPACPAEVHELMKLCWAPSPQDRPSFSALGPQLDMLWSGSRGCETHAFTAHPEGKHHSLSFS
# Description: Covalent inhibition of recombinant recombinant human GST-tagged JAK3(781 to 1124 residues) expressed in baculovirus expression system incubated for 1 hr in the presence of ATP by FRET based Z'-LYTE assay
# U-937 [2] = assay: Antiproliferative activity against human U-937 cells harbouring JAK3 M511 mutation assessed as reduction in cell viability incubated for 72 hrs by CCK-8 assay; assay type: functional, cell-based; conditions: U-937, 72 h
# [3] = Selectivity ratio of IC50 for inhibition of wild type EGFR (unknown origin) to IC50 for covalent inhibition of recombinant human GST-tagged JAK3 (781 to 1124 residues) expressed in baculovirus expression system
# U-937 [4] = assay: Effect on STAT5 protein level in human U-937 cells at 12.5 to 200 nM measured after 12 hrs by Western blotting analysis; assay type: functional, cell-based; conditions: dose 12.5-200 nM
# [5] = target: T2, Tyrosine-protein kinase JAK3 (Homo sapiens) (UniProt P52333); assay: Inhibition of JAK3 phosphorylation in human U-937 cells at 200 nM preincubated for 6 hrs followed by compound washout and measured upto 24 hrs by Western blotting analysis; assay type: cell-based
# T2 sequence (whole entry): T1 sequence (P52333 whole entry)
# [6] = target: Epidermal growth factor receptor (Homo sapiens, UniProt P00533); assay: Inhibition of wild type EGFR (unknown origin) incubated for 1 hr in the presence of ATP by FRET based Z'-LYTE assay
# Chain of Epidermal growth factor receptor (Homo sapiens, UniProt P00533) (P00533 whole entry, the tested form may be a part): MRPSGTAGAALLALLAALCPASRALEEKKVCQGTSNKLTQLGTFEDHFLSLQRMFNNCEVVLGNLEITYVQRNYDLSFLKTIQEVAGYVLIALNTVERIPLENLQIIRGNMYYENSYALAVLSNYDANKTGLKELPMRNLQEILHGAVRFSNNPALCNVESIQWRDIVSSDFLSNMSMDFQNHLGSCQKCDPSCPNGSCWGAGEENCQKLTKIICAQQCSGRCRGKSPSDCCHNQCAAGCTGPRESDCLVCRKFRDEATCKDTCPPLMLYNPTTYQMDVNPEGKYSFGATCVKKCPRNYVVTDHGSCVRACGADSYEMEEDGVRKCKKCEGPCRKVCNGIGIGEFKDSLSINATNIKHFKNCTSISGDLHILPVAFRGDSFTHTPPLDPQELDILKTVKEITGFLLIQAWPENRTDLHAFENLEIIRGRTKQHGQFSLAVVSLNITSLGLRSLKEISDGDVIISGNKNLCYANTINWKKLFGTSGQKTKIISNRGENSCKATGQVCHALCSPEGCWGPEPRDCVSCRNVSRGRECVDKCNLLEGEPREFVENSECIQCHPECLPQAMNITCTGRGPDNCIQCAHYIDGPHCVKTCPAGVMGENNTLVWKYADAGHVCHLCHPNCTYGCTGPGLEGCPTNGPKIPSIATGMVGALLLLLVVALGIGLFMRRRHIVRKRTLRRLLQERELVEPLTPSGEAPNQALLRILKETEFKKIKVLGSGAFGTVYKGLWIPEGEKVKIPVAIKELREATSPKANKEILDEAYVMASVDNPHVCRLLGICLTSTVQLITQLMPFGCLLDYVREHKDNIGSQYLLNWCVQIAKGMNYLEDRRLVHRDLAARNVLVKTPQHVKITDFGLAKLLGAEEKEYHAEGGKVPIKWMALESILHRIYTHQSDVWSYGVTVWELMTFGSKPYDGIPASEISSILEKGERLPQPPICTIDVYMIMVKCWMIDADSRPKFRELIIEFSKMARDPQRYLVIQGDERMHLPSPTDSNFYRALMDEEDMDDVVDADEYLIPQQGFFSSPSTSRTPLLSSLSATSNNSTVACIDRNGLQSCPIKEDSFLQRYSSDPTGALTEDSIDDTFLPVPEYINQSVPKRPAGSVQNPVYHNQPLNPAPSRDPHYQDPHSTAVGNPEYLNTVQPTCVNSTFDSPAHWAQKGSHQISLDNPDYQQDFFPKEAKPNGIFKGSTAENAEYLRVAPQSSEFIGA
# [7] = Selectivity ratio of IC50 for inhibition of EGFR T790M mutant (unknown origin) to IC50 for covalent inhibition of recombinant human GST-tagged JAK3 (781 to 1124 residues) expressed in baculovirus expression system
# U-937 [8] = assay: Effect on JAK3 protein level in human U-937 cells at 12.5 to 200 nM measured after 12 hrs by Western blotting analysis; assay type: functional, cell-based; conditions: dose 12.5-200 nM
# [9] = target: T3, Signal transducer and activator of transcription 5A (Homo sapiens) (UniProt P42229); assay: Inhibition of STAT5 phosphorylation in human U-937 cells at 200 nM preincubated for 6 hrs followed by compound washout and measured upto 24 hrs by Western blotting analysis; assay type: cell-based
# T3 sequence (whole entry): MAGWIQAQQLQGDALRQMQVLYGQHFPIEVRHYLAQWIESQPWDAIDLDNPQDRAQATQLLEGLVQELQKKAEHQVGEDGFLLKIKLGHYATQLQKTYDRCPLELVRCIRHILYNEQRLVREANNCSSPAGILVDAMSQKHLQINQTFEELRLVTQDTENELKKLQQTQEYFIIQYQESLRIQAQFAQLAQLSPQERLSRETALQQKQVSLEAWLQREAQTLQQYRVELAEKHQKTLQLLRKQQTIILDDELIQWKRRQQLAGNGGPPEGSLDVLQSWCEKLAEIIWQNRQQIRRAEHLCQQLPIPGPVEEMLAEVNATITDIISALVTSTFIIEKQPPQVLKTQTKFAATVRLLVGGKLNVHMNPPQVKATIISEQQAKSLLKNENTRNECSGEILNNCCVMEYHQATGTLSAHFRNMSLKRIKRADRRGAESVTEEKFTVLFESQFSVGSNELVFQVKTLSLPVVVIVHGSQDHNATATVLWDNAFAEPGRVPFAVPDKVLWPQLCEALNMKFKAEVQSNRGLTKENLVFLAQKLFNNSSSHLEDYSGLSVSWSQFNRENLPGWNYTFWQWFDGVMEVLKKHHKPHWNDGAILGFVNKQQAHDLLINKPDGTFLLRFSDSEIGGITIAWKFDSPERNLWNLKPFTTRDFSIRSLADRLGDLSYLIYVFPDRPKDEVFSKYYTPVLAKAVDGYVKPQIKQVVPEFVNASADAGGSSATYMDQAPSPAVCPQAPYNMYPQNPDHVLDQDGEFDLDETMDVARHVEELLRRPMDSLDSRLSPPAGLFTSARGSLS
# NCI-H1299 = assay: Antiproliferative activity against human NCI-H1299 cells assessed as reduction in cell viability incubated for 72 hrs by CCK-8 assay; assay type: functional, cell-based; conditions: NCI-H1299, 72 h
# HCT-116 = assay: Antiproliferative activity against human HCT-116 cells assessed as reduction in cell viability incubated for 72 hrs by CCK-8 assay; assay type: functional, cell-based; conditions: HCT-116, 72 h
# [10] = target: Tyrosine-protein kinase BTK (Homo sapiens, UniProt Q06187); assay: Inhibition of BTK (unknown origin) incubated for 1 hr in the presence of ATP by FRET based Z'-LYTE assay
# OCI-Ly3 = assay: Antiproliferative activity against human OCILY3 cells assessed as reduction in cell viability incubated for 72 hrs by CCK-8 assay; assay type: functional, cell-based; conditions: OCI-Ly3, 72 h
# MOLT-4 = assay: Antiproliferative activity against human MOLT-4 cells assessed as reduction in cell viability incubated for 72 hrs by CCK-8 assay; assay type: functional, cell-based; conditions: MOLT-4, 72 h
# [11] = target: Tyrosine-protein kinase JAK1 (Homo sapiens, UniProt P23458); assay: Inhibition of JAK1 (unknown origin) incubated for 1 hr in the presence of ATP by FRET based Z'-LYTE assay
# [12] = target: T3, Signal transducer and activator of transcription 5A (Homo sapiens); assay: Inhibition STAT5 phosphorylation in human U-937 cells measured after 12 hrs by Western blotting analysis; assay type: cell-based; conditions: dose 12.5-200 nM, DDE = dose-dependent effect
# [13] = target: Tyrosine-protein kinase JAK2 (Homo sapiens, UniProt O60674); assay: Inhibition of JAK2 (unknown origin) incubated for 1 hr in the presence of ATP by FRET based Z'-LYTE assay
# Chain of Tyrosine-protein kinase JAK2 (O60674 whole entry): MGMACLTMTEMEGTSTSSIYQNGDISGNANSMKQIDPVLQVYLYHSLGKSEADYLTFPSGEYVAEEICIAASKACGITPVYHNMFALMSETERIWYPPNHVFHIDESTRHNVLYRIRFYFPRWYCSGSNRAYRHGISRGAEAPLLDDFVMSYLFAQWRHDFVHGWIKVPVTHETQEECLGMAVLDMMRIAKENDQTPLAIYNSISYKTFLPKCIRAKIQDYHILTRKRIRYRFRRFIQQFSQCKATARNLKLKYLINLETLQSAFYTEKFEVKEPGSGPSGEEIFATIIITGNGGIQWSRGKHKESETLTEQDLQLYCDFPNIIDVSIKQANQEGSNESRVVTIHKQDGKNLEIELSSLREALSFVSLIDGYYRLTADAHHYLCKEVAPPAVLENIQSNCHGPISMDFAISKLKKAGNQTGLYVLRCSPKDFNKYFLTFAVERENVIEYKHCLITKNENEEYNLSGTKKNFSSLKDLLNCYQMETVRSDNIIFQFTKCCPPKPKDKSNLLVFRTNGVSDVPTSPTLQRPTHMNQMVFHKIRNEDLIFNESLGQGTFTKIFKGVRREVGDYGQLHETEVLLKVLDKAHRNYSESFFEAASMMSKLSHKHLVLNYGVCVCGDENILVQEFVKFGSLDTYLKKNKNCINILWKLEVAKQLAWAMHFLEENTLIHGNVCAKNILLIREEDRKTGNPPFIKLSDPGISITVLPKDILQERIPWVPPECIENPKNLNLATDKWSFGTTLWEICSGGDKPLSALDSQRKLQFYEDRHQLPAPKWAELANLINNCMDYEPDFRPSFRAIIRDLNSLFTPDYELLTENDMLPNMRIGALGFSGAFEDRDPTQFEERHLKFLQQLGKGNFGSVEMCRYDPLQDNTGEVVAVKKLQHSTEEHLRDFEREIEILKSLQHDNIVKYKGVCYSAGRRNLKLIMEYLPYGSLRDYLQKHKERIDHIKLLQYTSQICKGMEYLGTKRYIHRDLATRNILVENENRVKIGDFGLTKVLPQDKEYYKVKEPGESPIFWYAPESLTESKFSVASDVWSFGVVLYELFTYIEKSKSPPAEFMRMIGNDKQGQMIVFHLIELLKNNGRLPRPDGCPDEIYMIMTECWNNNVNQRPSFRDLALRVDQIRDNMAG
# COLO 205 = assay: Antiproliferative activity against human COLO 205 cells assessed as reduction in cell viability incubated for 72 hrs by CCK-8 assay; assay type: functional, cell-based; conditions: COLO 205, 72 h
# [14] = target: T2, Tyrosine-protein kinase JAK3 (Homo sapiens); assay: Inhibition of JAK3 phosphorylation in human U-937 cells measured after 12 hrs by Western blotting analysis; assay type: cell-based; conditions: dose 12.5-200 nM, DDE = dose-dependent effect
# Jurkat = assay: Antiproliferative activity against human Jurkat cells assessed as reduction in cell viability incubated for 72 hrs by CCK-8 assay; assay type: functional, cell-based
# [15] = target: Non-receptor tyrosine-protein kinase TYK2 (Homo sapiens, UniProt P29597); assay: Inhibition of TYK2 (unknown origin) incubated for 1 hr in the presence of ATP by FRET based Z'-LYTE assay
# Chain of Non-receptor tyrosine-protein kinase TYK2 (P29597 whole entry): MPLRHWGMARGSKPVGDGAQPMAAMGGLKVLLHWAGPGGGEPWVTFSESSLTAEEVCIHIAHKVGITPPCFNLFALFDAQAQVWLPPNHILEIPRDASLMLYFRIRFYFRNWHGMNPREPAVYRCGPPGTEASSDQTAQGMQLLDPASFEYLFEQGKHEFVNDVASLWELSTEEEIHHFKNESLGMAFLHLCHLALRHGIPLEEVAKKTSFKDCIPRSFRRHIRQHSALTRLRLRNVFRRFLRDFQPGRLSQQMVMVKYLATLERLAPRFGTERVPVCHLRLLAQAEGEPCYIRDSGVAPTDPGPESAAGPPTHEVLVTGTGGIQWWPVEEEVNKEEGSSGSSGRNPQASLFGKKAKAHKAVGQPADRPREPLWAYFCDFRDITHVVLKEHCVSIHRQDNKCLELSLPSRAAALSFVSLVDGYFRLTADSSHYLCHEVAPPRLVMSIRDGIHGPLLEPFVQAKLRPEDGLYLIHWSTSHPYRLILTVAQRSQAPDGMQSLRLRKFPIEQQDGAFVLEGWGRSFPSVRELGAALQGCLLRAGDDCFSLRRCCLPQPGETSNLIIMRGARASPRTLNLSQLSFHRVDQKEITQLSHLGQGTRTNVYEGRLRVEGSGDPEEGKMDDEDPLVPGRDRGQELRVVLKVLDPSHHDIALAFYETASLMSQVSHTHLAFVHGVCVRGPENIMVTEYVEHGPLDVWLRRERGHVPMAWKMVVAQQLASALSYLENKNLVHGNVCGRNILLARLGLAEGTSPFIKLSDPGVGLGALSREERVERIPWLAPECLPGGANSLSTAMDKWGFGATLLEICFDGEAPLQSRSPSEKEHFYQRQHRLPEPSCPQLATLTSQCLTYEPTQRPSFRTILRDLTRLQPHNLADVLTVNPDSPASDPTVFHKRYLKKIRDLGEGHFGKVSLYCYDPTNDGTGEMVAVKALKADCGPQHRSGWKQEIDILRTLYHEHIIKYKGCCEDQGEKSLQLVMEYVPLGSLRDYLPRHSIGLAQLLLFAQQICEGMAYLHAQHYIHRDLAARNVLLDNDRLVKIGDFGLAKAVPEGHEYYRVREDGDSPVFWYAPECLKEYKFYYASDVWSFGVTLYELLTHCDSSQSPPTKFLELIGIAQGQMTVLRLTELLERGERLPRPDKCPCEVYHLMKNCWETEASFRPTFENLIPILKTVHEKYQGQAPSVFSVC
# [16] = target: Epidermal growth factor receptor (Homo sapiens, UniProt P00533, T790M); assay: Inhibition of EGFR T790M mutant (unknown origin) incubated for 1 hr in the presence of ATP by FRET based Z'-LYTE assay
# Chain of Epidermal growth factor receptor (Homo sapiens, UniProt P00533, T790M) (P00533 25-1210 T790M limits assumed): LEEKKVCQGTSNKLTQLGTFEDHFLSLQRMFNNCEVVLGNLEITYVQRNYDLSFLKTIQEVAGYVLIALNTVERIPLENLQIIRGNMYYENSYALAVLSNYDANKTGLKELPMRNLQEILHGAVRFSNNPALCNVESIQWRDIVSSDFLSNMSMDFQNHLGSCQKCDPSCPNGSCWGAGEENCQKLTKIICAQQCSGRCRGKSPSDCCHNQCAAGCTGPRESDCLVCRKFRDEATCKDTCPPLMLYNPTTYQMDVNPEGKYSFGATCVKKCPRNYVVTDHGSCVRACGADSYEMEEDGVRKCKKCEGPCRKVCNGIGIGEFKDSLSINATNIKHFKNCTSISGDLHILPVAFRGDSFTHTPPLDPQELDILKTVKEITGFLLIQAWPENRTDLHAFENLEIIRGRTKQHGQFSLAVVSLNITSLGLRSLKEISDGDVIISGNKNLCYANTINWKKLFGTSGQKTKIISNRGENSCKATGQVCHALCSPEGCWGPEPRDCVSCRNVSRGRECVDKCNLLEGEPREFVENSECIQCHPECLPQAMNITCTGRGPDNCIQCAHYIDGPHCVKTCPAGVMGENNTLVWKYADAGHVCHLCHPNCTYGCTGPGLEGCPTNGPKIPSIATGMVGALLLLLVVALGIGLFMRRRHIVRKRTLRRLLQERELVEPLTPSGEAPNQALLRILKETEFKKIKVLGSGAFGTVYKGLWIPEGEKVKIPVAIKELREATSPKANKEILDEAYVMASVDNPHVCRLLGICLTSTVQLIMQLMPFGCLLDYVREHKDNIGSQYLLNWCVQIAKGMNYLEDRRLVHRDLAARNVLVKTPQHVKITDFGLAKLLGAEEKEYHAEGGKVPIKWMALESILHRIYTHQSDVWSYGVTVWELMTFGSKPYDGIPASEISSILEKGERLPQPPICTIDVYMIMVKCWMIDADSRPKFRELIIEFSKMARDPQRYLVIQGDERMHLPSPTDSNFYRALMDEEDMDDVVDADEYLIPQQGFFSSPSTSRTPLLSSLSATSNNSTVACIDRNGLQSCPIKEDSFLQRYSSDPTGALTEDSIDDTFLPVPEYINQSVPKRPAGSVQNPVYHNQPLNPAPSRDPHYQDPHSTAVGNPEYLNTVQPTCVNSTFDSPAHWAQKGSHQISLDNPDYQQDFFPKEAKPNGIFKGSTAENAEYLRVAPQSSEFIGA
# Daudi = assay: Antiproliferative activity against human Daudi cells assessed as reduction in cell viability incubated for 72 hrs by CCK-8 assay; assay type: functional, cell-based
# MDA-MB-231 = assay: Antiproliferative activity against human MDA-MB-231 cells assessed as reduction in cell viability incubated for 72 hrs by CCK-8 assay; assay type: functional, cell-based; conditions: MDA-MB-231, 72 h
# [17] = Selectivity ratio of IC50 for inhibition of BTK (unknown origin) to IC50 for covalent inhibition of recombinant human GST-tagged JAK3 (781 to 1124 residues) expressed in baculovirus expression system
# [18] = target: T1, Tyrosine-protein kinase JAK3; assay: Inhibition of JAK3 (unknown origin) incubated for 1 hr in the presence of ATP by FRET based Z'-LYTE assay
smiles,measurement,setting,value
C=CC(=O)Nc1ccc(Cn2c(=O)ccc3cnc(Nc4ccccc4OC)nc32)cc1,IC50,[1],72.1 nM
C=CC(=O)Nc1ccccc1Cn1c(=O)ccc2cnc(Nc3ccccc3OC)nc21,IC50,[1],> 10000 nM
C=CC(=O)Nc1cccc(Cn2c(=O)ccc3cnc(Nc4cnn(CCOC)c4)nc32)c1,IC50,[1],3.3 nM
same,IC50,U-937 [2],430 nM
C=CC(=O)Nc1cccc(Cn2c(=O)ccc3cnc(Nc4ccc(N(C)CCN(C)C)cc4OC)nc32)c1,IC50,[1],3.1 nM
same,IC50,U-937 [2],520 nM
C=CC(=O)Nc1cccc(Cn2c(=O)ccc3cnc(Nc4ccccc4OC)nc32)c1,IC50,[1],3 nM
same,IC50,U-937 [2],2020 nM
C=CC(=O)Nc1cccc(Cn2c(=O)ccc3cnc(Nc4cnn(C)c4)nc32)c1,IC50,[1],1.8 nM
same,IC50,U-937 [2],220 nM
C=CC(=O)Nc1cccc(Cn2c(=O)ccc3cnc(Nc4ccc(N5CCN(C)CC5)cc4OCC)nc32)c1,IC50,[1],9.8 nM
same,IC50,U-937 [2],1810 nM
C/C=C/C(=O)Nc1cccc(Cn2c(=O)ccc3cnc(Nc4ccccc4OC)nc32)c1,IC50,[1],4800 nM
CCC(=O)Nc1cccc(Cn2c(=O)ccc3cnc(Nc4ccccc4OC)nc32)c1,IC50,[1],> 10000 nM
C=CC(=O)Nc1cccc(Cn2c(=O)ccc3cnc(Nc4ccc(N5CCN(C)CC5)cc4)nc32)c1,IC50,[1],2 nM
same,Ratio IC50,[3],> 100
same,Activity,U-937 [4],Active
same,inhibition,[5],Active
same,IC50,[6],261 nM
same,Ratio IC50,[7],> 100
same,Activity,U-937 [8],Active
same,inhibition,[9],Active
same,IC50,NCI-H1299,4780 nM
same,IC50,HCT-116,3690 nM
same,IC50,[10],15.6 nM
same,IC50,OCI-Ly3,1530 nM
same,IC50,MOLT-4,2250 nM
same,IC50,[11],2430 nM
same,inhibition,[12],Dde
same,IC50,U-937 [2],50 nM
same,IC50,[13],1130 nM
same,IC50,COLO 205,3840 nM
same,inhibition,[14],Dde
same,IC50,Jurkat,2280 nM
same,IC50,[15],8880 nM
same,IC50,[16],216 nM
same,IC50,Daudi,2070 nM
same,IC50,MDA-MB-231,3030 nM
same,Ratio IC50,[17],8
C=CC(=O)Nc1cccc(Cn2c(=O)cc(CC)c3cnc(Nc4ccc(N5CCN(C)CC5)cc4OC)nc32)c1,IC50,[1],20 nM
C=CC(=O)Nc1cccc(Cn2c(=O)ccc3cnc(Nc4cnn(C5CCN(C)CC5)c4)nc32)c1,IC50,[1],2 nM
same,IC50,U-937 [2],70 nM
C=CC(=O)Nc1cccc(Cn2c(=O)cc(C3CC3)c3cnc(Nc4ccc(N5CCN(C)CC5)cc4OC)nc32)c1,IC50,[1],1450 nM
C=CC(=O)N1C[C@H](Nc2ncnc3[nH]ccc23)CC[C@@H]1C [RITLECITINIB],IC50,U-937 [2],40 nM
C=CC(=O)Nc1cccc(Cn2c(=O)ccc3cnc(Nc4ccc(N5CCN(C)CC5)cc4OC)nc32)c1,IC50,[1],1.6 nM
same,IC50,U-937 [2],470 nM
C=CC(=O)Nc1cccc(Cn2c(=O)ccc3cnc(Nc4cnn(CCO)c4)nc32)c1,IC50,[1],1.7 nM
same,IC50,U-937 [2],470 nM
C=CC(=O)Nc1cccc(Cn2c(=O)ccc3cnc(Nc4ccc(N5CCN(C(C)=O)CC5)cc4OC)nc32)c1,IC50,[1],3.3 nM
same,IC50,U-937 [2],540 nM
C=CC(=O)Nc1cccc(Cn2c(=O)cc(C)c3cnc(Nc4ccc(N5CCN(C)CC5)cc4OC)nc32)c1,IC50,[1],18.2 nM
C=CC(=O)Nc1cccc(Cn2c(=O)ccc3cnc(Nc4ccc(C5CCN(C)CC5)cc4OC)nc32)c1,IC50,[1],4.1 nM
same,IC50,U-937 [2],520 nM
C=CC(=O)Nc1cccc(Cn2c(=O)ccc3cnc(Nc4ccc(N5CCN(C)CC5)cc4OC(C)C)nc32)c1,IC50,[1],1300 nM
C=CC(=O)Nc1cccc(Cn2c(=O)cc(CCC)c3cnc(Nc4ccc(N5CCN(C)CC5)cc4OC)nc32)c1,IC50,[1],> 10000 nM
C=CC(=O)Nc1cccc(-n2c(=O)cc(C)c3cnc(Nc4ccc(N5CCN(C)CC5)cc4OC)nc32)c1,IC50,[18],31.3 nM
